Results published in patent US8697720B2 (Crestone, Inc., priority 2006, dated 2014).

What was measured:
[1] = tested on: C. difficile strain ATCC43255; test: Toxin A production in high cell density stationary phase C. difficile cultures (ELIFA); format: cell-based; details: 4 day old stationary phase cultures, toxin A by ELIFA
Procedure: C. difficile strain ATCC43255 was grown and maintained anaerobically on CDC anaerobe agar (Remel, Lenexa, Kans.). To test the effect of antibacterial agents on growth, cells were grown anaerobically for 40 h at 35° C. in 96-well brain heart infusion (BHI) broth cultures, with an initial inoculum of 10^6 CFU/mL. To test the effect of antibacterial agents on toxin production at high C. difficile cell densities, the cells were grown anaerobically for 24 h at 35° C. in 96-well brain heart infusion (BHI) broth cultures. Spent medium was then replaced with fresh broth containing MetRS inhibitors and control agents at a concentration range of 0.015-16 μg/mL. After 4 days, growth and cell viability were monitored by optical density measurements at 595 nm and by culture on CDC anaerobe agar, respectively. Culture supernatants were collected, and toxin A was detected by ELIFA (enzyme-linked immuno-flow assay) using an anti toxin A monoclonal antibody (Novus Biologicals, Centennial, Colo.).

C. difficile = test: C. difficile-infected hamster survival study; format: in vivo
Procedure: Animal studies were performed to determine the efficacy of MetRS inhibitors for treating C. difficile-infections. The MetRS inhibitors tested were 5-[3-((R)-6,8-Dibromo-chroman-4-ylamino)-propylamino]-4H-thieno[3,2-b]pyridine-7-one (both racemic mixture and the R enantiomer), 5-[3-((R)-8-Bromo-6-chloro-chroman-4-ylamino)-propylamino]-4H-thieno[3,2-b]pyridin-7-one, and 2-(3-{3,5-Dibromo-2-[2-(4-methyl-thiazol-5-yl)-ethoxy]-benzylamino}-propylamino)-1H-quinolin-4-one.
Results were compared to C. difficile-infected hamsters treated with the conventional antibiotic, vancomycin. Infected hamsters were treated with either a solution or suspension of a MetRS inhibitor at 5 to 50 mg/kg or vancomycin at 2.5, 5 or 25 mg/kg. There were eight hamsters per group with the final endpoint of the experiment being survival. Expired hamsters were examined for GI condition.

SMILES	concentrations that inhibited toxin production [1] [µg/mL]	further results
Cc1ncsc1CCOc1c(Br)cc(Br)cc1CNCCCNc1cc(=O)c2sccc2[nH]1	0.25	
Cl.Cl.Cl.O=c1cc(NCCCNC2CCNc3c(Br)cc(Br)cc32)[nH]c2ccsc12 (stereo not drawn) [5-[3-(6,8-Dibromo-1,2,3,4-tetrahydro-quinolin-4-ylamino)-propylamino]-4H-thieno[3,2-b]pyridin-7-one tri-hydrochloride]	0.25	
O=c1cc(NCCCNC2CCOc3c(Br)cc(Br)cc32)[nH]c2ccsc12 (stereo not drawn) [5-[3-(6,8-Dibromo-chroman-4-ylamino)-propylamino]-4H-thieno[3,2-b]pyridin-7-one]	0.25	
O=c1cc(NCCCN[C@@H]2CCOc3c(Br)cc(Br)cc32)[nH]c2ccsc12 [5-[3-((R)-6,8-Dibromo-chroman-4-ylamino)-propylamino]-4H-thieno[3,2-b]pyridine-7-one]		survival of infected hamsters (C. difficile; MetRS inhibitor at 5 to 50 mg/kg, untreated controls died within 3-4 days): best efficacy
Cl.Cl.O=c1cc(NCCCN[C@@H]2CCOc3c(Br)cc(Br)cc32)[nH]c2ccsc12 [R-(+)-5-[3-(6,8-Dibromo-chroman-4-ylamino)-propylamino]-4H-thieno[3,2-b]pyridin-7-one di-hydrochloride]	0.25	
CN[C@H](CC(C)C)C(=O)N[C@H]1C(=O)N[C@@H](CC(N)=O)C(=O)N[C@H]2C(=O)N[C@H]3C(=O)N[C@H](C(=O)N[C@H](C(=O)O)c4cc(O)cc(O)c4-c4cc3ccc4O)[C@H](O)c3ccc(c(Cl)c3)Oc3cc2cc(c3O[C@@H]2O[C@H](CO)[C@@H](O)[C@H](O)[C@H]2O[C@H]2C[C@](C)(N)[C@H](O)[C@H](C)O2)Oc2ccc(cc2Cl)[C@H]1O [vancomycin, reference compound]		survival with vancomycin (C. difficile; Day 28, vancomycin at 2.5, 5 or 25 mg/kg): 0-10%
